System: RAW 264.7
Assay: Cytotoxicity assessment (MTT)
Type: cell-based, Murine
Details: peptide 10 µg/mL, 72 h; for Cell viability, mean±SD: relative to untreated cells
Method: Murine macrophage cells (RAW 264.7; ATCC TIB-71™) were cultured in Dulbecco’s Modified Eagle’s Medium (DMEM) that was supplemented with 10% heat-inactivated fetal bovine serum (FBS) and 1% antibiotic solution. Colorectal adenocarcinoma cells (CaCo-2; ATCC HTB 37™) were cultured in Eagle’s Minimum Essential Medium (EMEM), also supplemented with 10% heat-inactivated FBS and 1% antibiotic solution. Both cell types were maintained in a humidified incubator with 5% CO2. The cell culture medium was refreshed every three days.
Cytotoxicity assessment was performed following the method described by Yang et al., with slight modifications. RAW 264.7 was seeded with 1 x 10^5 cells in a 96-well plate with an appropriate cell culture medium. After allowing the cells to attach, the medium was replaced with a fresh cell culture medium containing the peptide samples at a concentration of 10 µg/mL. The treated cells were incubated for an additional 72 h. At the designated time, fresh medium was added, which included 3-(4,5-dimethylthiazol-2-yl)-2,5-diphenyltetrazolium bromide (MTT) at a concentration of 0.5 mg/mL. After 3 h, formazan crystals were observed. The medium was then removed, and the crystals were dissolved in 100% dimethyl sulfoxide (DMSO). A microplate reader (Synergy HTX; Biotek, Multi-Mode Reader, Winooski, VT, USA) was utilized to measure the absorbance at 570 nm (measurement wavelength) and 630 nm (reference wavelength). The percentage of cell viability was calculated relative to untreated cells using the following equation (5):
Cellviability%=ODtreatment–ODblank/ODuntreated–ODblank×100 (5)
Where ODtreatment is the absorbance of the treated sample, ODuntreated is the absorbance of the untreated sample, and ODblank is the absorbance from wells without treated and untreated samples.

“DAENKENVEE [P18, synthesized peptide identified from jellyfish fraction PUR20C]” was tested, and the “Cell viability, mean±SD” value (n = 3, SD) was 89.16%, the Cell viability (replicate 1) was 86.29% and the Cell viability (replicate 2) was 87.17%. It also gave a Cell viability (replicate 3) of 94.02%.
With “EIDKLPPESRP [P7, synthesized peptide identified from jellyfish fraction PUR20C]” the “Cell viability, mean±SD” value (n = 3, SD) was 81.60%, the Cell viability (replicate 1) was 81.72% and the Cell viability (replicate 2) was 81.89%. It also gave a Cell viability (replicate 3) of 81.19%.
In the case of “EQIYPMGEGDEL [P4, synthesized peptide identified from jellyfish fraction PUR20C]”, the “Cell viability, mean±SD” value (n = 3, SD) is reported as 82.77±0.92%, the Cell viability (replicate 1) is reported as 83.12% and the Cell viability (replicate 2) is reported as 83.47%. The Cell viability (replicate 3) was 81.72%.
In the case of “GKNCGETVWE [P9, synthesized peptide identified from jellyfish fraction PUR20C]”, the “Cell viability, mean±SD” value (n = 3, SD) is reported as 87.34%, the Cell viability (replicate 1) is reported as 87.34% and the Cell viability (replicate 2) is reported as 86.26%. The Cell viability (replicate 3) was 88.40%.
“HSVLTASYRN [P5, synthesized peptide identified from jellyfish fraction PUR20C]” was tested, and the “Cell viability, mean±SD” value (n = 3, SD) was 87.58%, the Cell viability (replicate 1) was 92.44% and the Cell viability (replicate 2) was 89.27%. The Cell viability (replicate 3) was 81.01%.
With “KFNEVVYFL [P15, synthesized peptide identified from jellyfish fraction PUR20C]” the “Cell viability, mean±SD” value (n = 3, SD) was 87.22%, the Cell viability (replicate 1) was 87.87% and the Cell viability (replicate 2) was 85.58%. For the same sequence, the Cell viability (replicate 3) was 88.22%.
For “LGAEGRSP [P13, synthesized peptide identified from jellyfish fraction PUR20C]”, the “Cell viability, mean±SD” value (n = 3, SD) was 82.77±1.53%, the Cell viability (replicate 1) was 81.72% and the Cell viability (replicate 2) was 82.07%. It also gave a Cell viability (replicate 3) of 84.53%.
“LNIPKPKLNLL [P11, synthesized peptide identified from jellyfish fraction PUR20C]” was tested, and the “Cell viability, mean±SD” value (n = 3, SD) was 84.71%, the Cell viability (replicate 1) was 84.53% and the Cell viability (replicate 2) was 85.41%. For the same sequence, the Cell viability (replicate 3) was 84.18%.
In the case of “MVVACVLPEA [P16, synthesized peptide identified from jellyfish fraction PUR20C]”, the “Cell viability, mean±SD” value (n = 3) is reported as “without cytotoxic effects”, the Cell viability (replicate 1) is reported as 81.01% and the Cell viability (replicate 2) is reported as 81.37%. For the same sequence, the Cell viability (replicate 3) was 81.19%.
“NQKAMQELNE [P1, synthesized peptide identified from jellyfish fraction PUR20C]” was tested, and the “Cell viability, mean±SD” value (n = 3, SD) was 85.94%, the Cell viability (replicate 1) was 88.04% and the Cell viability (replicate 2) was 85.76%. The Cell viability (replicate 3) was 84.00%.
With “PFTMYFLL [P14, synthesized peptide identified from jellyfish fraction PUR20C]” the “Cell viability, mean±SD” value (n = 3, SD) was 90.09±2.78^B %, the Cell viability (replicate 1) was 87.69% and the Cell viability (replicate 2) was 89.45%. It also gave a Cell viability (replicate 3) of 93.14%.
“PMETDDQPNN [P17, synthesized peptide identified from jellyfish fraction PUR20C]” was tested, and the “Cell viability, mean±SD” value (n = 3, SD) was 83.65%, the Cell viability (replicate 1) was 83.47% and the Cell viability (replicate 2) was 83.83%. The Cell viability (replicate 3) was 83.65%.
In the case of “RARVVPMY [P6, synthesized peptide identified from jellyfish fraction PUR20C]”, the “Cell viability, mean±SD” value (n = 3, SD) is reported as 85.47%, the Cell viability (replicate 1) is reported as 92.97% and the Cell viability (replicate 2) is reported as 82.77%. It also gave a Cell viability (replicate 3) of 80.66%.
With “RPLAKIIP [P8, synthesized peptide identified from jellyfish fraction PUR20C]” the “Cell viability, mean±SD” value (n = 3, SD) was 83.71%, the Cell viability (replicate 1) was 84.35% and the Cell viability (replicate 2) was 85.23%. It also gave a Cell viability (replicate 3) of 81.54%.
With “TDSPAPSETTD [P2, synthesized peptide identified from jellyfish fraction PUR20C]” the “Cell viability, mean±SD” value (n = 3, SD) was 85.70%, the Cell viability (replicate 1) was 83.12% and the Cell viability (replicate 2) was 86.46%. For the same sequence, the Cell viability (replicate 3) was 87.52%.

Source: publication PMC11813147, “Bioactivity assessment of peptides derived from salted jellyfish (Rhopilema hispidum) byproducts” (PLOS ONE, 2025)
